Data published in patent publication US12606528B2, “Methods and materials for inhibiting NF-kB activity” (University of Pittsburgh - Of the Commonwealth System of …, priority 2019, dated 2026).

Tests used:
NF-κB = NF-κB assay: THP1-NF-κB-LUC cells, LPS-stimulated secreted luciferase; assay type: cell-based; conditions: THP1-NF-κB-LUC cells, LPS-stimulated; read-out: IC50 (NF-κB assay)
In short: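 THP1-NF-κB-LUC cells (25k/well) were pretreated with compounds for 2 h, then stimulated with LPS (10 ng/mL) for 18 h. Secreted luciferase was measured and normalized to vehicle, and IC50 was fitted from the concentration series.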

TNF release = assay: TNF assay: TNF release from LPS-stimulated human PBMCs (TNF ELISA); assay type: cell-based; conditions: PBMC; LPS-stimulated human PBMCs, TNF ELISA; read-out: IC50 (TNF assay)
In short: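 Human PBMCs at 10k/well pretreated with compound dilutions 2 h, then stimulated with LPS (10 ng/mL) for 18 h. TNF in supernatants quantified by ELISA; IC50 for inhibition of TNF release fitted from concentration–response.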

IC50 (NF-κB) [µM] | IC50 (TNF release) [µM] | Structure (SMILES)
> 10 | > 10 | O=S(=O)(c1ccc(Cl)cc1)c1nc(-c2cccc(F)c2)sc1S(=O)(=O)C1CCCCC1 [BC19583]
1 to 10 | > 10 | CC(C)[S+]([O-])c1[nH]c(-c2ccccc2)nc1S(=O)(=O)c1ccc(Cl)cc1 (stereo not drawn) [BC19584]
1 to 10 | > 10 | CCC[S+]([O-])c1[nH]c(-c2ccccc2)nc1S(=O)(=O)c1ccc(F)cc1 (stereo not drawn) [BC19585]
1 to 10 | > 10 | O=S(=O)(c1ccc(F)cc1)c1nc(-c2ccccc2)[nH]c1[S+]([O-])C1CCCCC1 (stereo not drawn) [BC19586]
1 to 10 | 1 to 10 | COCCS(=O)(=O)c1sc(-c2cccc(F)c2)nc1S(=O)(=O)c1ccc(F)cc1 [BC19587]
1 to 10 | > 10 | CC(C)C[S+]([O-])c1sc(-c2cccc(F)c2)nc1S(=O)(=O)c1ccc(F)cc1 (stereo not drawn) [BC19588]
1 to 10 | 1 to 10 | CCCS(=O)(=O)c1sc(-c2cccc(F)c2)nc1S(=O)(=O)c1ccc(F)cc1 [BC19589]
1 to 10 | 1 to 10 | CCC[S+]([O-])c1sc(-c2cccc(F)c2)nc1S(=O)(=O)c1ccc(F)cc1 (stereo not drawn) [BC19590]
1 to 10 | 1 to 10 | CC(C)[S+]([O-])c1sc(-c2cccc(F)c2)nc1S(=O)(=O)c1ccc(F)cc1 (stereo not drawn) [BC19591]
1 to 10 | 1 to 10 | O=S(=O)(CC1CC1)c1sc(-c2cccc(F)c2)nc1S(=O)(=O)c1ccc(Cl)cc1 [BC19592]
0.1 to 1 | 1 to 10 | CC(C)C[S+]([O-])c1sc(-c2ccc(Cl)cc2)nc1S(=O)(=O)c1ccc(F)cc1 (stereo not drawn) [BC19593]
> 10 | > 10 | O=S(=O)(c1ccc(F)cc1)c1nc(-c2ccc(Cl)cc2)sc1[S+]([O-])C1CCCCC1 (stereo not drawn) [BC19594]
0.1 to 1 | 0.1 to 1 | C[S+]([O-])c1sc(-c2cccc(F)c2)nc1S(=O)(=O)c1ccc(F)cc1 (stereo not drawn) [BC19595]
0.1 to 1 | 1 to 10 | CS(=O)(=O)c1sc(-c2cccc(F)c2)nc1S(=O)(=O)c1ccc(F)cc1 [BC19596]
1 to 10 | > 10 | O=S(=O)(c1ccc(F)cc1)c1nc(-c2cccc(F)c2)sc1[S+]([O-])CC1CC1 (stereo not drawn) [BC19597]
1 to 10 | 1 to 10 | O=S(=O)(CC1CC1)c1sc(-c2cccc(F)c2)nc1S(=O)(=O)c1ccc(F)cc1 [BC19598]
1 to 10 | 1 to 10 | COCC[S+]([O-])c1sc(-c2cccc(F)c2)nc1S(=O)(=O)c1ccc(F)cc1 (stereo not drawn) [BC19599]

IC50 (NF-κB) [µM] | IC50 (TNF release) [µM] | Structure (SMILES)
> 10 | > 10 | CCC[S+]([O-])c1c(S(=O)(=O)c2ccc(F)cc2)nc(-c2ccccc2)n1C (stereo not drawn) [BC19600]
> 10 | > 10 | CC(C)[S+]([O-])c1c(S(=O)(=O)c2ccc(F)cc2)nc(-c2ccccc2)n1C (stereo not drawn) [BC19601]
> 10 | > 10 | Cn1c(-c2ccccc2)nc(S(=O)(=O)c2ccc(F)cc2)c1[S+]([O-])CC1CC1 (stereo not drawn) [BC19602]
0.1 to 1 | > 10 | O=C1NCCOc2c1cc(Br)cc2S(=O)(=O)Nc1ccc(Cl)cc1 [BC19603]
1 to 10 | > 10 | CCc1ccc(NS(=O)(=O)c2cc(Br)cc3c2OCCNC3=O)cc1 [BC19604]
> 10 | > 10 | CC(C)c1ccc(NS(=O)(=O)c2cc(Br)cc3c2OCCNC3=O)cc1 [BC19605]
1 to 10 | > 10 | COc1ccc(NS(=O)(=O)c2cc(Br)cc3c2OCCNC3=O)cc1 [BC19606]
0.1 to 1 | > 10 | Cc1ccc(NS(=O)(=O)c2cc(Br)cc3c2OCCNC3=O)cc1Cl [BC19607]
1 to 10 | > 10 | O=C1NCCOc2c1cc(Br)cc2S(=O)(=O)Nc1ccc(F)cc1F [BC19608]
1 to 10 | > 10 | CCc1cccc(NS(=O)(=O)c2cc(Br)cc3c2OCCNC3=O)c1 [BC19609]
0.1 to 1 | > 10 | O=C1NCCOc2c1cc(Br)cc2S(=O)(=O)Nc1cccc(F)c1 [BC19610]
< 0.1 | > 10 | O=C1NCCOc2c1cc(Br)cc2S(=O)(=O)Nc1cccc(Cl)c1 [BC19611]
1 to 10 | > 10 | Cc1ccc(NS(=O)(=O)c2cc(Br)cc3c2OCCNC3=O)cc1 [BC19612]
> 10 | > 10 | O=C1NCCOc2c1cc(Br)cc2S(=O)(=O)Nc1ccc(F)cc1Cl [BC19613]
> 10 | > 10 | COc1ccc(NS(=O)(=O)c2cc(Br)cc3c2OCCNC3=O)cc1Cl [BC19614]
0.1 to 1 | > 10 | N#Cc1ccc(NS(=O)(=O)c2cc(Br)cc3c2OCCNC3=O)cc1 [BC19615]
